Source: ChEMBL document CHEMBL4715896, “A styrylpyrone dimer isolated from Aniba heringeri causes apoptosis in MDA-MB-231 triple-negative breast cancer cells” (Bioorg Med Chem, 2021)
Active and inactive are the calls of the source. The rule behind the calls is not given here.

Legend:
[1] = Selectivity index, ratio of GI50 for cytotoxicity against mouse NIH/3T3 cells to GI50 for human HT-29 cells; format: toxicity, cell-based; details: NIH/3T3 cells and HT-29 cells, read-out: RatioGI50
[2] = Selectivity index, ratio of GI50 for cytotoxicity against mouse NIH/3T3 cells to GI50 for human MCF7 cells; format: toxicity, cell-based; details: NIH/3T3 cells and MCF7 cells, read-out: RatioGI50
[3] = Selectivity index, ratio of GI50 for cytotoxicity against mouse NIH/3T3 cells to GI50 for human 786-0 cells
MCF7 = test: Growth inhibition of human MCF7 cells incubated for 48 hrs by sulforhodamine B assay; format: functional
[4] = Cytotoxicity against mouse NIH/3T3 cells assessed as growth inhibition after 48 hrs by SRB assay; format: cell-based, NIH3T3
HT-29 = test: Growth inhibition of human HT-29 cells incubated for 48 hrs by sulforhodamine B assay; format: functional
786-0 = test: Growth inhibition of human 786-0 cells incubated for 48 hrs by sulforhodamine B assay; format: functional
[5] = Selectivity index, ratio of GI50 for cytotoxicity against mouse NIH/3T3 cells to GI50 for human MDA-MB-231 cells; format: toxicity, cell-based; details: NIH/3T3 cells and MDA-MB-231 cells, read-out: RatioGI50
PC-3 = test: Growth inhibition of human PC3 cells incubated for 48 hrs by sulforhodamine B assay; format: functional
MDA-MB-231 [6] = test: Growth inhibition of human MDA-MB-231 cells incubated for 48 hrs by sulforhodamine B assay; format: functional
[7] = Selectivity index, ratio of GI50 for cytotoxicity against mouse NIH/3T3 cells to GI50 for human PC3 cells; format: toxicity, cell-based; details: NIH/3T3 cells and PC3 cells, read-out: RatioGI50
MDA-MB-231 [8] = test: Induction of apoptosis in human MDA-MB-231 cells assessed as formation of apoptotic bodies after 72 hrs by Hoechst 33342 staining based analysis relative to control; format: functional
MDA-MB-231 [9] = test: Induction of morphological changes in human MDA-MB-231 cells assessed as cells with irregular shape at 63 uM after 72 hrs by acridine orange/ethidium bromide double staining-based fluorescence/phase contrast microscopic analysis; format: functional, cell-based
MDA-MB-231 [10] = test: Induction of morphological changes in human MDA-MB-231 cells assessed as formation of coarse clusters at 4.4 uM after 72 hrs by acridine orange/ethidium bromide double staining-based fluorescence/phase contrast microscopic analysis; format: functional, cell-based
MDA-MB-231 [11] = test: Induction of apoptosis in human MDA-MB-231 cells assessed as increase in Bax gene expression at 63 uM after 48 hrs by RT-qPCR analysis; format: functional, cell-based
MDA-MB-231 [12] = test: Induction of apoptosis in human MDA-MB-231 cells assessed as reduction in bcl2 gene expression at 63 uM after 48 hrs by RT-qPCR analysis; format: functional, cell-based
MDA-MB-231 [13] = test: Induction of apoptosis in human MDA-MB-231 cells assessed as apoptotic cells at 63 uM after 72 hrs by Annexin-V/7-AAD staining based flow cytometry relative to control; format: functional
MDA-MB-231 [14] = test: Induction of apoptosis in human MDA-MB-231 cells assessed as nuclei fragmentation at 63 uM after 48 hrs by acridine orange/ethidium bromide double staining-based fluorescence/phase contrast microscopic analysis; format: functional, cell-based
MDA-MB-231 [15] = test: Induction of apoptosis in human MDA-MB-231 cells assessed as effect on BIRC5 mRNA expression at 63 uM after 48 hrs by RT-qPCR analysis; format: functional, cell-based
MDA-MB-231 [16] = test: Induction of apoptosis in human MDA-MB-231 cells assessed as late apoptotic cells at 63 uM after 72 hrs by Annexin-V/7-AAD staining based flow cytometry relative to control; format: functional
MDA-MB-231 [17] = test: Induction of apoptosis in human MDA-MB-231 cells assessed as formation of apoptotic bodies after 48 hrs by Hoechst 33342 staining based analysis relative to control; format: functional
MDA-MB-231 [18] = test: Induction of apoptosis in human MDA-MB-231 cells assessed as chromatin condensation at 63 uM after 72 hrs by acridine orange/ethidium bromide double staining-based fluorescence/phase contrast microscopic analysis; format: functional, cell-based
MDA-MB-231 [19] = test: Induction of apoptosis in human MDA-MB-231 cells assessed as viable cells at 63 uM after 72 hrs by Annexin-V/7-AAD staining based flow cytometry relative to control; format: functional; details: read-out: Activity
MDA-MB-231 [20] = test: Induction of morphological changes in human MDA-MB-231 cells assessed as formation of atypical cell clusters at 4.4 uM after 72 hrs by acridine orange/ethidium bromide double staining-based fluorescence/phase contrast microscopic analysis; format: functional
MDA-MB-231 [21] = test: Induction of morphological changes in human MDA-MB-231 cells assessed as loss of elongated spindle morphology at 4.4 uM after 48 hrs by acridine orange/ethidium bromide double staining-based fluorescence/phase contrast microscopic analysis; format: functional, cell-based
MDA-MB-231 [22] = test: Induction of apoptosis in human MDA-MB-231 cells assessed as chromatin condensation at 63 uM after 48 hrs by acridine orange/ethidium bromide double staining-based fluorescence/phase contrast microscopic analysis; format: functional, cell-based
MDA-MB-231 [23] = test: Induction of apoptosis in human MDA-MB-231 cells assessed as necrotic cells at 63 uM after 48 hrs by Annexin-V/7-AAD staining based flow cytometry relative to control; format: functional
MDA-MB-231 [24] = test: Induction of morphological changes in human MDA-MB-231 cells assessed as loss of cell adhesion at 63 uM after 72 hrs by acridine orange/ethidium bromide double staining-based fluorescence/phase contrast microscopic analysis; format: functional
MDA-MB-231 [25] = test: Induction of apoptosis in human MDA-MB-231 cells assessed as appearance of apoptotic bodies at 63 uM after 72 hrs by acridine orange/ethidium bromide double staining-based fluorescence/phase contrast microscopic analysis; format: functional, cell-based
MDA-MB-231 [26] = test: Induction of apoptosis in human MDA-MB-231 cells assessed as activation of caspase-3 at 63 uM after 72 hrs by flow cytometry relative to untreated control; format: functional
MDA-MB-231 [27] = test: Induction of apoptosis in human MDA-MB-231 cells assessed as increase in Bax/Bcl2 gene expression at 63 uM after 48 hrs by RT-qPCR analysis; format: functional, cell-based
MDA-MB-231 [28] = test: Induction of apoptosis in human MDA-MB-231 cells assessed as nuclei fragmentation at 63 uM after 72 hrs by acridine orange/ethidium bromide double staining-based fluorescence/phase contrast microscopic analysis; format: functional, cell-based
MDA-MB-231 [29] = test: Induction of apoptosis in human MDA-MB-231 cells assessed as appearance of apoptotic bodies at 63 uM after 48 hrs by acridine orange/ethidium bromide double staining-based fluorescence/phase contrast microscopic analysis; format: functional, cell-based
MDA-MB-231 [30] = test: Induction of apoptosis in human MDA-MB-231 cells assessed as activation of caspase-3 at 63 uM after 48 hrs by flow cytometry; format: functional, cell-based
MDA-MB-231 [31] = test: Induction of morphological changes in human MDA-MB-231 cells assessed as proliferation arrest at 4.4 uM after 48 hrs by acridine orange/ethidium bromide double staining-based fluorescence/phase contrast microscopic analysis; format: functional, cell-based
MDA-MB-231 [32] = test: Induction of apoptosis in human MDA-MB-231 cells assessed as late apoptotic cells at 63 uM after 48 hrs by Annexin-V/7-AAD staining based flow cytometry relative to control; format: functional
MDA-MB-231 [33] = test: Induction of morphological changes in human MDA-MB-231 cells assessed as reduction in cytoplasmic extension at 4.4 uM after 48 hrs by acridine orange/ethidium bromide double staining-based fluorescence/phase contrast microscopic analysis; format: functional, cell-based
MDA-MB-231 [34] = test: Induction of apoptosis in human MDA-MB-231 cells assessed as necrotic cells at 63 uM after 72 hrs by Annexin-V/7-AAD staining based flow cytometry relative to control; format: functional
MDA-MB-231 [35] = test: Induction of morphological changes in human MDA-MB-231 cells assessed as reduction in number of cells at 63 uM after 48 hrs by acridine orange/ethidium bromide double staining-based fluorescence/phase contrast microscopic analysis; format: functional, cell-based
MDA-MB-231 [36] = test: Induction of morphological changes in human MDA-MB-231 cells assessed as reduction in number of cells at 63 uM after 72 hrs by acridine orange/ethidium bromide double staining-based fluorescence/phase contrast microscopic analysis; format: functional, cell-based
MDA-MB-231 [37] = test: Induction of morphological changes in human MDA-MB-231 cells assessed as loss of cell cell interaction at 63 uM after 72 hrs by acridine orange/ethidium bromide double staining-based fluorescence/phase contrast microscopic analysis; format: functional
MDA-MB-231 [38] = test: Induction of morphological changes in human MDA-MB-231 cells assessed as reduction in cell contact at 4.4 uM after 48 hrs by acridine orange/ethidium bromide double staining-based fluorescence/phase contrast microscopic analysis; format: functional
MDA-MB-231 [39] = test: Induction of apoptosis in human MDA-MB-231 cells assessed as viable cells at 63 uM after 48 hrs by Annexin-V/7-AAD staining based flow cytometry relative to control; format: functional; details: read-out: Activity
MDA-MB-231 [40] = test: Induction of apoptosis in human MDA-MB-231 cells assessed as apoptotic cells at 63 uM after 48 hrs by Annexin-V/7-AAD staining based flow cytometry relative to control; format: functional

## O=c1cccc([C@H]2[C@H](c3ccccc3)[C@H](c3cccc(=O)o3)[C@H]2c2ccccc2)o1
[1]
  selectivity ratio: 5.67
[2]
  selectivity ratio at 48 h: 41.1
[3]
  RatioGI50: 0.88
MCF7
  GI50: 12.2 µM
[4]
  GI50 at 48 h: 503 µM
HT-29
  GI50: 88.7 µM
786-0
  GI50: 567 µM
[5]
  selectivity ratio at 48 h: 14.7
PC-3
  GI50: 96.3 µM
MDA-MB-231 [6]
  GI50: 34.2 µM
[7]
  selectivity ratio: 5.22

## COc1cccc2c1C(=O)c1c(O)c3c(c(O)c1C2=O)C[C@@](O)(C(=O)CO)C[C@@H]3O[C@H]1C[C@H](N)[C@H](O)[C@H](C)O1 [DOXORUBICIN]
MCF7
  GI50: 0.25 µM
[4]
  GI50 at 48 h: 0.28 µM
HT-29
  GI50: 0.28 µM
786-0
  GI50: 0.16 µM
PC-3
  GI50: 0.24 µM
MDA-MB-231 [6]
  GI50: 1.84 µM

## O=C1C=C[C@@H]2[C@H](c3ccccc3)[C@@H](c3cccc(=O)o3)[C@]2(/C=C/c2ccccc2)O1
MDA-MB-231 [8]
  Activity: 33%
MDA-MB-231 [9]
  Activity: Active
MDA-MB-231 [10]
  Activity: Active
MDA-MB-231 [11]
  Activity: Active
MDA-MB-231 [12]
  Activity: inactive
[1]
  selectivity ratio: 2.26
MDA-MB-231 [13]
  Activity: 11%
MDA-MB-231 [14]
  Activity: Active
MDA-MB-231 [15]
  Activity: Active
MDA-MB-231 [16]
  Activity: 37%
MDA-MB-231 [17]
  Activity: 56%
MDA-MB-231 [18]
  Activity: Active
MDA-MB-231 [19]
  viability at 63 µM: 50%
MDA-MB-231 [20]
  Activity: Active
MDA-MB-231 [21]
  Activity: Active
MDA-MB-231 [22]
  Activity: Active
MDA-MB-231 [23]
  Activity: 2%
MDA-MB-231 [24]
  Activity: Active
MDA-MB-231 [25]
  Activity: Active
MDA-MB-231 [26]
  fold change (FC): 4
MDA-MB-231 [27]
  Activity: Active
MDA-MB-231 [28]
  Activity: Active
MDA-MB-231 [29]
  Activity: Active
[2]
  selectivity ratio at 48 h: 3.14
[3]
  RatioGI50: 2.55
MDA-MB-231 [30]
  Activity: Active
MDA-MB-231 [31]
  Activity: Active
MDA-MB-231 [32]
  Activity: 13%
MDA-MB-231 [33]
  Activity: Active
MCF7
  GI50: 50.2 µM
MDA-MB-231 [34]
  Activity: 5%
[4]
  GI50 at 48 h: 158 µM
HT-29
  GI50: 69.7 µM
MDA-MB-231 [35]
  Activity: Active
786-0
  GI50: 61.7 µM
MDA-MB-231 [36]
  Activity: Active
[5]
  selectivity ratio at 48 h: 35.7
PC-3
  GI50: 69.5 µM
MDA-MB-231 [37]
  Activity: Active
MDA-MB-231 [38]
  Activity: Active
MDA-MB-231 [6]
  GI50: 4.42 µM
MDA-MB-231 [39]
  viability at 63 µM: 28.4%
MDA-MB-231 [40]
  Activity: 17%
[7]
  selectivity ratio: 2.27

## O=c1cccc(/C=C/c2ccccc2)o1
[1]
  selectivity ratio: 8.73
[2]
  selectivity ratio at 48 h: 11.8
[3]
  RatioGI50: 7.24
MCF7
  GI50: 107 µM
[4]
  GI50 at 48 h: 1270 µM
HT-29
  GI50: 145 µM
786-0
  GI50: 176 µM
[5]
  selectivity ratio at 48 h: 12.9
PC-3
  GI50: 90.4 µM
MDA-MB-231 [6]
  GI50: 98 µM
[7]
  selectivity ratio: 14
